Measurements taken from US11931374B2, “Adenosine receptor modulators for the treatment of circadian rhythm disorders” (OXFORD UNIVERSITY INNOVATION LIMITED, priority 2016, dated 2024).

Key:
[1] = tested on: Bmal1::Luc reporter U2OS cells; assay: Bmal1::Luc reporter U2OS cells circadian rhythm; assay type: cell-based; conditions: 10 uM
[2] = tested on: Per2; assay: Per2 mRNA within the SCN after intraperitoneal injection; assay type: in vivo, mice; conditions: 4 h after intraperitoneal injection
Description: SCN Tissue Collection: Animals were housed under a 12:12 LD cycle for 2 weeks with food and water ad libitum. Animals then received either a drug injection with a alteration in the light dark cycle as described in the experiment and at set points following drug administration were sacrificed by cervical dislocation. Sham-treated mice not given a light pulse were dissected at each time point. Brains were removed and placed into a brain matrix (Kent Scientific, Torrington CT, USA). Per2::Luc transgenic animals (as reported in Yoo et al, Proc Natl Acad Sci USA. 2004 Apr. 13; 101(15):5339-46) were obtained from Prof Joseph Takahashi, Northwestern University. […]
(§1) Total RNA was extracted using the microRNeasy column method (Qiagen, Hilden, Germany). Quality and quantity of RNA were measured using an Agilent Bioanalyzer and a Nanodrop1000 (Thermo Fisher Scientific, Waltham, MA USA), respectively.
RNA samples were prepared as described for microarray hybridisation. cDNA was synthesized with a qScript cDNA synthesis kit (Quanta Biosciences, Gaithersburg, MD), and quantitative PCR (qPCR) was conducted with Sybr green I and an SDS7700 thermal cycler (Applied Biosystems, Foster City, CA). Relative quantification of transcript levels was done as described previously (Peirson et al., Nucleic Acids Res. 2003 Jul. 15; 31(14):e73.). […]

[3] = tested on: intracellular levels of cAMP; assay: cAMP GloSensor assay in U2OS cells; assay type: cell-based
Procedure: The GloSensor™ cAMP Assay (Promega) was used for detecting changes in the intracellular levels of cAMP. Initially, a Greiner Bio-One 96 Well Plate (white, TC treated) was seeded at 8000 cells per 100 μl well, as described above. After 24 hours, the cells were transfected with the pGloSensor™ cAMP Plasmid using the Viafect transfection reagent as above. Between 24 and 48 hours later, allowing for the accumulation of the biosensor, the medium in the 96 well plate was changed to C02-Independent Medium supplemented with GlutaMAX™ (Life Technologies), 10% fetal bovine serum and 2% GloSensor™ cAMP Reagent. The plate was then stood for 2 hours at room temperature to equilibrate. Following the incubation period, the cells were treated with relevant drugs and their luminescence values were measured after 20 minutes in the BMG FLUOstar OPTIMA Microplate Reader, with forskolin as a positive control, and DMSO as a negative control.

[4] = tested on: cJun; assay: cJun mRNA after drug treatment; assay type: cell-based; conditions: 10 uM
Procedure: as §1
(§2) RNA samples were prepared as described for microarray hybridisation. cDNA was synthesized with a qScript cDNA synthesis kit (Quanta Biosciences, Gaithersburg, MD), and quantitative PCR (qPCR) was conducted with Sybr green I and an SDS7700 thermal cycler (Applied Biosystems, Foster City, CA). Relative quantification of transcript levels was done as described previously (Peirson et al., Nucleic Acids Res. 2003 Jul. 15; 31(14):e73.). The geometric mean of a minimum of three housekeeping genes was used for normalization (Gapdh, ActB, GusB and Rps9 for example).

[5] = tested on: Fos; assay: Fos mRNA after drug treatment; assay type: cell-based; conditions: 10 uM
Procedure: as §1, §2

[6] = tested on: Per1; assay: Per1 mRNA levels in U2OS cells by qPCR; assay type: cell-based
Procedure: as §1, §2
Cells from the U2OS (HTB-96) line were obtained, tested and identified. The cells were cultured in T-75 flasks, in Dulbecco's modified Eagle medium (DMEM) supplemented with 10% foetal bovine serum (FBS) and 1% penicillin-streptomycin (P/S) at 37° C. in a humidified atmosphere at 5% CO2. The cells were subcultured every 2 to 4 days in a 1:2 to 1:6 ratio, in accordance with the ATCC recommendations. The cells were counted using a haemocytometer, and their viability in a culture was maintained at above 95%, measured with a Presto Blue exclusion assay according to the manufacturer's specifications. Cells were transfected with siRNAs (typically at 50 nM concentrations, sequences as previously listed), the CRE::Luc (pGL4.29[luc2P/CRE/Hygro] Vector, encoding Luc2P […] under the control of a strong cAMP response element (CRE) promoter containing 3 CRE elements within its sequence; Promega) reporter vector or cAMP-GLOSensor plasmid (Promega) as per manufacturer's instructions using either Lipofectamine RNAimax (Invitrogen) or Lipofectamine3000 (Invitrogen).

[7] = tested on: C57Bl/6 mice; assay: Phase shifting of circadian activity in response to a light pulse with drug; assay type: in vivo; conditions: light at CT16
Procedure: Animals were maintained in a 12 h light (white) 12 h dark (grey) cycle and vehicle was administered just before a 30 min 400 lux light pulse (white bar) at time CT 22 (or 10 hours after lights off). All light cues were then removed to allow the animals free running clock to express. A gap in the lines on the day after the light pulse was administered indicates a phase shift.
Animals were maintained in a 12 h light (white) 12 h dark (grey) cycle and IB-MECA (1 mg/kg) was administered just before a 30 min 400 lux light pulse (white bar) at time CT 22 (or 10 hours after lights off).
Animals were housed under a reversed 12:12 LD cycle (400 lux from white LED lamps) with food and water ad libitum. For phase-shifting studies, C57Bl/6 mice were maintained on running wheels in light tight chambers on a 12:12 LD cycle (400 lux from white LED lamps) and injected with drug at the indicated time points. The drugs were formulated in a vehicle consisting of 5% Koliphor-HS15 (Sigma-Aldrich, UK) 5% Cyclodextran (Sigma-Aldrich, UK) in 0.9% saline. […] Where measuring phase-shifting, the mice were then placed in DD and allowed to free run for 14 days in DD, running wheel activity data was collected and analysed on Clocklab (Actimetrics, Wilmette, IL). […]

## Nc1nc(-c2ccccc2)c2c(n1)-c1cc(OCCN3CCOCC3)ccc1C2=O [JNJ40255293, 2-amino-8-[2-(4-morpholinyl)ethoxy]-4-phenyl-5H-indeno[1,2-d]pyrimidin-5-one]
[1]
  period length: increases in period length
  rhythms after washout of drug: revert to normal rhythms after washout of drug
[2]
  Per2 mRNA levels within the SCN: increase
[3]
  cAMP levels: does not elevate cAMP levels
[3]; 30 uM
  increase in cAMP: 50%
[4]
  cJun mRNA: Upregulation
[5]
  Fos mRNA: Upregulation
[6]; 4 h post-drug treatment
  Per1 transcription: significantly increased
[6]; U2OS cell cultures, 10 uM
  Per1 mRNA: Robust increases
[6]; U2OS cells, 30 uM
  Per1 mRNA levels: elevated
[6]; U2OS cells, qPCR, concentration not given
  Per1 mRNA levels / expression: induce the expression of Per1 and Per2
[7]
  phase-shifts in response to light: enhances phase-shifts in response to light at CT16
